A word on the solubility (mole fraction): it is solubility expressed as the solute's share of all molecules.

This passage reports solubility (mole fraction) results from BigSolDB 2.1.

The conditions of this data set: in water.

With `CC(C)(C)CC(C)(C)c1ccc(O)cc1`, the solubility (mole fraction) by setting is: (298.1 K) 1.32e-06; (303.1 K) 1.55e-06; (310.1 K) 1.91e-06; (318.1 K) 2.52e-06; (328.1 K) 3.83e-06.

As to `CCCCCCCCc1ccc(O)cc1`, the solubility (mole fraction) (298.1 K) is 2.9e-07; the solubility (mole fraction) (303.1 K) came out at 3.4e-07; the solubility (mole fraction) (310.1 K) worked out at 4.7e-07; the solubility (mole fraction) (318.1 K) turned out to be 6.4e-07; the solubility (mole fraction) (328.1 K) was found to be 8.4e-07.

On to `CCCCCCCCCc1ccc(O)cc1`, for which the solubility (mole fraction) is, setting by setting: (298.1 K) 4e-08; (303.1 K) 5e-08; (310.1 K) 7e-08; (318.1 K) 1.4e-07; (328.1 K) 2e-07.
